Experimental data as given in PubChem BioAssay AID248 (DTP/NCI, 2004).
Toxic doses and inconclusive results are not listed.

System: L1210 leukemia ip in BDF1 mice, survival T/C
Assay: NCI In Vivo Anticancer Drug Screen. Data for tumor model L1210 Leukemia (intraperitoneal) in B6D2F1 (BDF1) mice
Settings: endpoint: mean survival time, higher = longer survival
In short: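 Ratio derived from survival: compound-dosed mice over vehicle-dosed mice, all bearing a transplantable tumor.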

[1] = dose: 400.0 mg/kg/injection, schedule: Q01DX001 (ip), vehicle: carboxymethylcellulose (CMC)
[2] = dose: 100.0 mg/kg/injection, schedule: Q04DX002 (ip), vehicle: Klucel (hydroxypropylcellulose) (HPC)
[3] = dose: 200.0 mg/kg/injection, schedule: Q04DX002 (ip), vehicle: Klucel (hydroxypropylcellulose) (HPC)
[4] = dose: 100.0 mg/kg/injection, schedule: Q01DX009 (ip), vehicle: Klucel (hydroxypropylcellulose) (HPC)
[5] = dose: 200.0 mg/kg/injection, schedule: Q01DX009 (ip), vehicle: Klucel (hydroxypropylcellulose) (HPC)
[6] = dose: 400.0 mg/kg/injection, schedule: Q01DX009 (ip), vehicle: Klucel (hydroxypropylcellulose) (HPC)
[7] = dose: 100.0 mg/kg/injection, schedule: Q01DX001 (ip), vehicle: carboxymethylcellulose (CMC)
[8] = dose: 200.0 mg/kg/injection, schedule: Q01DX001 (ip), vehicle: carboxymethylcellulose (CMC)
[9] = dose: 100.0 mg/kg/injection, schedule: Q01DX009 (ip), vehicle: saline with Tween-80
[10] = dose: 100.0 mg/kg/injection, schedule: Q04DX003 (ip), vehicle: saline with Tween-80
[11] = dose: 200.0 mg/kg/injection, schedule: Q01DX009 (ip), vehicle: saline with Tween-80
[12] = dose: 200.0 mg/kg/injection, schedule: Q04DX003 (ip), vehicle: saline with Tween-80
[13] = dose: 400.0 mg/kg/injection, schedule: Q01DX009 (ip), vehicle: saline with Tween-80
[14] = dose: 400.0 mg/kg/injection, schedule: Q04DX003 (ip), vehicle: saline with Tween-80
[15] = dose: 100.0 mg/kg/injection, schedule: Q01DX001 (ip), vehicle: saline

c1nc(SC2CCCC2)c2[nH]cnc2n1
T/C (dose: 5.0 mg/kg/injection, schedule: Q01DX Z (ip), vehicle: carboxymethylcellulose (CMC)): 106 % of control | T/C (dose: 10.0 mg/kg/injection, schedule: Q01DX Z (ip), vehicle: carboxymethylcellulose (CMC)): 103 % of control | T/C (dose: 10.0 mg/kg/injection, schedule: Q01DX Z (oral), vehicle: carboxymethylcellulose (CMC)): 108 % of control | T/C (dose: 21.0 mg/kg/injection, schedule: Q01DX Z (ip), vehicle: carboxymethylcellulose (CMC)): 112 % of control | T/C (dose: 21.0 mg/kg/injection, schedule: Q01DX Z (oral), vehicle: carboxymethylcellulose (CMC)): 108 % of control | T/C (dose: 25.0 mg/kg/injection, schedule: Q01DX009 (ip), vehicle: carboxymethylcellulose (CMC)): 115 % of control | T/C (dose: 42.0 mg/kg/injection, schedule: Q01DX Z (ip), vehicle: carboxymethylcellulose (CMC)): 112 % of control | T/C (dose: 42.0 mg/kg/injection, schedule: Q01DX Z (oral), vehicle: carboxymethylcellulose (CMC)): 106 % of control | T/C (dose: 42.5 mg/kg/injection, schedule: Q01DX Z (ip), vehicle: carboxymethylcellulose (CMC)): 122 % of control | T/C (dose: 50.0 mg/kg/injection, schedule: Q01DX009 (ip), vehicle: carboxymethylcellulose (CMC)): 119 % of control | T/C (dose: 84.0 mg/kg/injection, schedule: Q01DX Z (oral), vehicle: carboxymethylcellulose (CMC)): 150 % of control | T/C (dose: 85.0 mg/kg/injection, schedule: Q01DX Z (ip), vehicle: carboxymethylcellulose (CMC)): 163 % of control | T/C (dose: 176.0 mg/kg/injection, schedule: Q01DX001 (ip), vehicle: carboxymethylcellulose (CMC)): 98 % of control | T/C (dose: 264.0 mg/kg/injection, schedule: Q01DX001 (ip), vehicle: carboxymethylcellulose (CMC)): 100 % of control | T/C (dose: 340.0 mg/kg/injection, schedule: Q01DX Z (ip), vehicle: carboxymethylcellulose (CMC)): 110 % of control | T/C (dose: 340.0 mg/kg/injection, schedule: Q01DX Z (oral), vehicle: carboxymethylcellulose (CMC)): 152 % of control | T/C [1]: 93 % of control

O=C(c1ccccc1CO)N1CCCCC1
T/C [2]: 112 % of control | T/C [3]: 105 % of control

OCC1OC(n2ccc3cncnc32)C(O)C1O (stereo unspecified)
T/C (dose: 5.0 mg/kg/injection, schedule: Q01DX001 (ip), vehicle: saline): 106 % of control | T/C (dose: 10.0 mg/kg/injection, schedule: Q01DX001 (ip), vehicle: saline): 109 % of control | T/C (dose: 20.0 mg/kg/injection, schedule: Q01DX001 (ip), vehicle: saline): 106 % of control | T/C (dose: 40.0 mg/kg/injection, schedule: Q01DX001 (ip), vehicle: saline): 106 % of control

NC(=S)NNC(=S)S
T/C [4]: 98 % of control | T/C [5]: 98 % of control | T/C [6]: 109 % of control

CCOC(=S)c1ccc(S(=O)(=O)Nc2ccccc2)cc1
T/C (dose: 100.0 mg/kg/injection, schedule: Q01DX001 (ip), vehicle: saline with Tween-80): 100 % of control | T/C (dose: 200.0 mg/kg/injection, schedule: Q01DX001 (ip), vehicle: saline with Tween-80): 97 % of control | T/C (dose: 400.0 mg/kg/injection, schedule: Q01DX001 (ip), vehicle: saline with Tween-80): 95 % of control

CN(C)c1ccc2c(c1)C(=P(c1ccccc1)(c1ccccc1)c1ccccc1)c1ccccc1-2
T/C (dose: 63.0 mg/kg/injection, schedule: Q01DX015 (ip), vehicle: carboxymethylcellulose (CMC)): 103 % of control | T/C [7]: 97 % of control | T/C (dose: 125.0 mg/kg/injection, schedule: Q01DX015 (ip), vehicle: carboxymethylcellulose (CMC)): 94 % of control | T/C [8]: 101 % of control | T/C (dose: 250.0 mg/kg/injection, schedule: Q01DX015 (ip), vehicle: carboxymethylcellulose (CMC)): 100 % of control | T/C [1]: 90 % of control | T/C (dose: 500.0 mg/kg/injection, schedule: Q01DX015 (ip), vehicle: carboxymethylcellulose (CMC)): 89 % of control

Cc1ccc([P+](Cc2ccc(Cl)cc2Cl)(c2ccc(C)cc2)c2ccc(C)cc2)cc1
T/C (dose: 6.25 mg/kg/injection, schedule: Q04DX003 (ip), vehicle: Klucel (hydroxypropylcellulose) (HPC)): 103 % of control | T/C (dose: 12.5 mg/kg/injection, schedule: Q04DX003 (ip), vehicle: Klucel (hydroxypropylcellulose) (HPC)): 92 % of control

CCOc1ccccc1CC(=O)O
T/C [9]: 88 % of control | T/C [10]: 92 % of control | T/C [11]: 98 % of control | T/C [12]: 87 % of control | T/C [13]: 101 % of control | T/C [14]: 92 % of control

O=C(OCC1OC(OC2(COC(=O)c3ccccc3)OC(COC(=O)c3ccccc3)C(OC(=O)c3ccccc3)C2OC(=O)c2ccccc2)C(OC(=O)c2ccccc2)C(OC(=O)c2ccccc2)C1OC(=O)c1ccccc1)c1ccccc1 (stereo unspecified)
T/C [9]: 95 % of control | T/C [11]: 92 % of control | T/C [13]: 92 % of control

CC1(C)C(=NN)C(C)(C)C1O (stereo unspecified)
T/C (dose: 75.0 mg/kg/injection, schedule: Q01DX001 (ip), vehicle: saline): 101 % of control | T/C (dose: 150.0 mg/kg/injection, schedule: Q01DX001 (ip), vehicle: saline): 104 % of control | T/C (dose: 300.0 mg/kg/injection, schedule: Q01DX001 (ip), vehicle: saline): 96 % of control

O=C1c2ccccc2C(O)(O)C1(O)C1(O)C(=O)c2ccccc2C1(O)O (stereo unspecified)
T/C [7]: 109 % of control | T/C [8]: 103 % of control

CCOC(=O)CCCN(C(=O)c1ccccc1)c1scc(-c2ccccc2)c1C(=O)OCC
T/C (dose: 50.0 mg/kg/injection, schedule: Q04DX003 (ip), vehicle: saline with Tween-80): 92 % of control | T/C [10]: 95 % of control | T/C [12]: 94 % of control | T/C [14]: 103 % of control

Cc1cc(=O)[nH]c2c(Br)cccc12
T/C (dose: 75.0 mg/kg/injection, schedule: Q04DX003 (ip), vehicle: Klucel (hydroxypropylcellulose) (HPC)): 87 % of control | T/C (dose: 150.0 mg/kg/injection, schedule: Q04DX003 (ip), vehicle: Klucel (hydroxypropylcellulose) (HPC)): 97 % of control | T/C (dose: 300.0 mg/kg/injection, schedule: Q04DX003 (ip), vehicle: Klucel (hydroxypropylcellulose) (HPC)): 97 % of control

CCCNc1ncc(C(=O)O)c(=O)[nH]1
T/C [10]: 93 % of control

NCCCCC(=O)NC(CCCCNC(=O)OCc1ccccc1)C(=O)O (stereo unspecified)
T/C [15]: 102 % of control | T/C (dose: 200.0 mg/kg/injection, schedule: Q01DX001 (ip), vehicle: saline): 107 % of control | T/C (dose: 400.0 mg/kg/injection, schedule: Q01DX001 (ip), vehicle: saline): 105 % of control

O=[N+]([O-])c1ccc2c(c1)-c1ccccc1C2Br (stereo unspecified)
T/C (dose: 100.0 mg/kg/injection, schedule: Q01DX005 (ip), vehicle: Klucel (hydroxypropylcellulose) (HPC)): 88 % of control | T/C [2]: 117 % of control | T/C [3]: 101 % of control | T/C (dose: 400.0 mg/kg/injection, schedule: Q01DX005 (ip), vehicle: Klucel (hydroxypropylcellulose) (HPC)): 102 % of control | T/C (dose: 400.0 mg/kg/injection, schedule: Q04DX002 (ip), vehicle: Klucel (hydroxypropylcellulose) (HPC)): 90 % of control

c1cc2c(c3c1CCCC3)CCCC2
T/C (dose: 50.0 mg/kg/injection, schedule: Q01DX001 (ip), vehicle: carboxymethylcellulose (CMC)): 92 % of control | T/C (dose: 50.0 mg/kg/injection, schedule: Q01DX009 (ip), vehicle: saline): 101 % of control | T/C [7]: 97 % of control | T/C (dose: 100.0 mg/kg/injection, schedule: Q01DX009 (ip), vehicle: saline): 94 % of control | T/C (dose: 100.0 mg/kg/injection, schedule: Q04DX003 (ip), vehicle: saline): 91 % of control | T/C [8]: 91 % of control | T/C (dose: 200.0 mg/kg/injection, schedule: Q04DX003 (ip), vehicle: saline): 101 % of control | T/C [1]: 94 % of control

Cc1cc(C)c(S(=O)(=O)Nc2ccccc2F)c(C)c1
T/C [4]: 98 % of control | T/C [5]: 110 % of control | T/C [6]: 93 % of control

O=S1(=O)CCCCC1C(O)(c1ccccc1)c1ccccc1 (stereo unspecified)
T/C (dose: 12.5 mg/kg/injection, schedule: Q04DX002 (ip), vehicle: saline with Tween-80): 97 % of control | T/C (dose: 25.0 mg/kg/injection, schedule: Q04DX002 (ip), vehicle: saline with Tween-80): 102 % of control | T/C (dose: 50.0 mg/kg/injection, schedule: Q04DX002 (ip), vehicle: saline with Tween-80): 94 % of control

CC(C)=C(c1ccc(Cl)cc1)c1c(N)ncnc1N
T/C [10]: 100 % of control | T/C [12]: 100 % of control | T/C [14]: 100 % of control

CC(C)OC(=O)C#CC(=O)O
T/C [15]: 98 % of control
